Here are results for 2 molecules from patent US11619628B2, “Device and determination system using same” (Osaka University, priority 2017, dated 2023).

One data set deals with UnaG protein (UniProtKB/Swiss-Prot: P0DM59.1, GenBank: AB763906.1). As to conditions: binding ability to indirect bilirubin; Kumagai et al., Cell 2013, 153, 1602-1611; read-out: dissociation constant; cited from earlier work.
Data set [1] is described as follows: Room-temperature storage of lyophilized samples, bilirubin affinity re-measured. Type of data set: physicochemical. As to conditions: lyophilized sample stored at room temperature; FIG. 5. How it is done:
500 μL of the purified UnaG (CΔ0)-NLuc (NΔ1) fusion protein was added to a 15-mL Falcon tube and frozen with liquid nitrogen. Thereafter, a powder of the protein solution was obtained by a lyophilizer. The powder was stored at room temperature.
After the preparation of the lyophilized samples, in order to investigate how long the activity is maintained, the lyophilized samples that had been […] were stored at room temperature every few days, and the affinity for bilirubin was measured according to the method described in the above item 7.

Regarding `C=CC1=C(C)/C(=C/c2[nH]c(Cc3[nH]c(/C=C4\NC(=O)C(C)=C4C=C)c(C)c3CCC(=O)O)c(CCC(=O)O)c2C)NC1=O` [bilirubin], the Kd at UnaG protein is 0.098 nM.

B1: UnaG (CΔ0)-NLuc (NΔ1) fusion protein: Fusion of UnaG (CΔ0) and NLuc (NΔ1) at the KpnI site, linker GT; amino acid sequence SEQ ID NO: 12 (protein)
chain: GGSGMVEKFVGTWKIADSHNFGEYLKAIGAPKELSDGGDATTPTLYISQKDGDKMTVKIENGPPTFLDTQVKFKLGEEFDEFPSDRRKGVKSVVNLVGEKYVQKWDGKETTYVREIKDGKLVVTLTMGDVVAVRSYRRATEGTVFTLEDFVGDWRQTAGYNLDQVLEQGGVSSLFQNLGVSVTPIQRIVLSGENGLKIDIHVIIPYEGLSGDQMGQIEKIFKVVYPVDDHHFKVILHYGTLVIDGVTPNMIDYFGRPYEGIAVFDGKKITVTGTLWNGNKIIDERLINPDGSLLFRVTINGVTGWRLCERILA
modifications: UnaG(C 0)-NLuc(N 1)
With B1, the “activity (affinity for bilirubin) after storage” value in data set [1] was “activity was maintained”.
